Measured values as given in paper PMC7026589, “Sensitive CometChip assay for screening potentially carcinogenic DNA adducts by trapping DNA repair intermediates” (Nucleic Acids Research, 2019).
Where “and” joins values, the source holds several entries; their conditions need not be identical. Identical values can stand only once. Like-named read-outs stand apart in the source and are kept apart here.

What was measured:
[1] = cited from earlier work
[2] = system: HepaRG™ cells
Excerpt: Cryopreserved HepaRG™ (HPRGC10), a terminally differentiated hepatic cell line, was purchased from ThermoFisher Scientific (Waltham, MA). HepaRG™ was thawed and cultured according to manufacturer's instructions. Briefly, the general purpose working medium was WEM supplemented with 1X GlutaMAX™ and 1X HepaRG™ Thaw, Plate, & General Purpose Medium Supplement. The metabolism working medium was WEM supplemented with 1X GlutaMAX™ and HepaRG™ Maintenance/Metabolism Medium Supplement. HepaRG™ cells were thawed in the general purpose working medium and plated in a 96-well plate coated with collagen I at 100 000 cells/well. One day after plating, the general purpose working medium was changed to the metabolism working medium. The metabolism working medium was renewed on day 4 and day 6 after plating. On day 7, the cells were treated in the metabolism working medium.
(§1) To load cells into microwells, ∼2000–200 000 cells in suspension were placed into each macrowell, and the chip was incubated at 37°C in the presence of 5% CO2 for 15 min. Cell were loaded into microwells by gravity, and excess cells were then washed off with PBS by shear force. The chip was covered with a layer of overlay agarose (1% w/v low-melting point agarose solution in PBS, kept molten at 43°C until use). For complete gelation of the overlay agarose, the chip was kept at room temperature for two minutes followed by 2 min at 4°C.
(§2) The alkaline comet assay was performed as previously ([15],[79]). Sodium chloride (NaCl, 7581), disodium EDTA (Na2EDTA, 4931), and sodium hydroxide pellets (NaOH, 7708) were purchased from VWR, Radnor, PA. Trizma® base (T1503), Trizma® HCl (T5941) and Triton X-100 (X-100) were obtained from MilliporeSigma, St. Louis, MO. 10 000× SYBR™ Gold nucleic acid gel stain was obtained from ThermoFisher Scientific, Waltham, MA.
(§3) The alkaline lysis buffer (pH ∼ 10) was a solution of 2.5 M NaCl, 100 mM Na2EDTA, 10 mM Trizma® base, and 1% (v/v) Triton X-100 dissolved in deionized H2O (dI H2O). […] The neutralization buffer (pH ∼ 7.5) was prepared by dissolving Trizma® HCl in distilled H2O to a final concentration of 0.4 M.
(§4) Cells encapsulated in CometChip were lysed in the alkaline lysis buffer overnight at 4°C. The nuclei were unwound in the alkaline unwinding buffer for 40 min at 4°C, and the DNA was electrophoresed in the same buffer at the same temperature for 30 min at 1 V/cm and ∼300 mA. The CometChip was then washed three times in neutralization buffer by submerging for 5 min each time.
(§5) The DNA on CometChip was stained for 15 min at room temperature with 1× of SYBR™ Gold diluted in PBS, protected from light. Fluorescent images of the comets were captured at 40× magnification using an epifluorescence microscope (Nikon Eclipse 80i, Nikon Instruments, Inc., Melville, NY, USA) with a 480 nm excitation filter. Image acquisition was achieved by automatic scanning using a motorized XY stage. Comet images were automatically analyzed using Guicometanalyzer, a custom software developed in MATLAB (The MathWorks Inc., Natick, MA, USA) as previously described ([15]). For each condition, 100 comets or more were analysed. Outputs from Guicometanalyzer were processed and imported to a spreadsheet (Microsoft Excel, Microsoft Office Suite 2016) using Comet2Excel, an in-house software developed in Python (Python Software Foundation, Python version 2.7.10). Software is freely available upon request.
For this experiment, the comets were analysed using Trevigen® Comet Analysis Software.
(§6) A vehicle control condition was included by diluting DMSO in cell culture medium to get a final concentration of 0.5%. Cells were incubated with the test compound for 24 h at 37°C in the presence of 5% CO2.
HepaRG™ were incubated with the test compound for 24 h at 37°C in the presence of 5% CO2. A vehicle control (1% DMSO) was included.

[3] = system: HepaRG™ cells; assay type: cell-based, human
Experimental: The CTG® luminescent cell viability assay kit (G7570) was obtained from Promega, Madison, WI. Cell viability after 24 h of chemical treatment was measured according to the manufacturer's instructions. Luminescent signals were recorded using a SpectraMax M2e microplate reader (Molecular Devices, Sunnyvale, CA, USA) at room temperature. The emission bracket was from 360 to 750 nm. Control wells with no cells were included to obtain background luminescence, which was then subtracted from the signal measured in the sample wells.

[4] = system: TK6 cells
[5] = system: HepG2 cells
Experimental: HepG2 (ATCC® HB-8065™), an immortalized cell line derived from human hepatocellular carcinoma, was obtained from the American Type Culture Collection (Manassas, VA). HepG2 cells were cultured in high-glucose DMEM supplemented with 10% FBS, 1× GlutaMAX™, and 100 U/ml Pen-Strep. For chemical exposures, exponentially growing cells were plated in a tissue cultured treated 96-well plate two days before treatment.
as §1, §2, §3, §4, §5, §6
HepG2 were incubated with the test compound for 24 h at 37°C in the presence of 5% CO2. A vehicle control (0.07% sodium bicarbonate) was included.
Cells embedded in CometChip were placed on ice and irradiated with 0, 0.9, 1.8, 3.6, 5.4, 7.2 and 9 Gy of gamma rays from a Cs 137 radiation source with a dose rate of 0.9 Gy/min. The irradiated cells were submerged into lysis buffer overnight and the alkaline CometChip assay performed as described above.

[6] = 1 mM HU and 10 μM AraC, 24 h, doses with statistically significant result
[7] = 1 mM HU and 10 μM AraC, 24 h exposure

## Cc1ccc(N)cc1N [2,4-DAT, 2,4-Diaminotoluene]
[1]
  Carcinogenicity IARC classification: Group 2B
[2]; [6]
  Alkaline CometChip HepaRG (+ HU + AraC) ‘+’ dose range: 10 mM
[2]; [7]
  Genotoxicity Alkaline CometChip HepaRG (+ HU + AraC) +/−: +
[2]; without HU/AraC, 24 h exposure
  Genotoxicity Alkaline CometChip HepaRG +/−: −

## O=C(N[C@H](CO)[C@H](O)c1ccc([N+](=O)[O-])cc1)C(Cl)Cl [CAM, Chloramphenicol]
[3]; HepaRG, 24 h, CTG
  Cytotoxicity: high levels of cytotoxicity
[2]; [6]
  Alkaline CometChip HepaRG (+ HU + AraC) ‘+’ dose range: 3.1 mM

## O=P1(N(CCCl)CCCl)NCCCO1 (stereo not shown) [CP, Cyclophosphamide monohydrate]
[2]
  DNA damage score: positives
  Genotoxicity Alkaline CometChip HepaRG (+ HU + AraC) +/−: +
  Genotoxicity Alkaline CometChip HepaRG +/−: −
[2]; human
  Alkaline CometChip HepaRG (+ HU + AraC) ‘+’ dose range: 5 to 10 mM

## N.N.[Cl][Pt][Cl] [Cisplatin, cis-Diamineplatinum(II) dichloride]
[1]
  Carcinogenicity IARC classification: Group 2A
[2]; HepaRG, using HU/AraC, 24 h
  DNA damage score: negative results

## COc1cc([C@@H]2c3cc4c(cc3[C@@H](O[C@@H]3O[C@@H]5CO[C@@H](C)O[C@H]5[C@H](O)[C@H]3O)[C@H]3COC(=O)[C@H]23)OCO4)cc(OC)c1O [Etoposide]
[2]
  Genotoxicity Alkaline CometChip HepaRG (+ HU + AraC) +/−: +
  Genotoxicity Alkaline CometChip HepaRG +/−: −

## OO [H2O2]
[4]; TK6 cells, 50 μM H2O2
  Comets on alkaline CometChip (comet tails): visibly large tails

## Oc1ccc(O)cc1 [HQ, Hydroquinone]
[3]
  Cytotoxicity: high levels of cytotoxicity
[2]
  Genotoxicity Alkaline CometChip HepaRG (+ HU + AraC) +/−: +
  Genotoxicity Alkaline CometChip HepaRG +/−: −
[2]; human
  Alkaline CometChip HepaRG (+ HU + AraC) ‘+’ dose range: 0.33 mM

## CC(=O)N1CCN(c2ccc(OCC3COC(Cn4ccnc4)(c4ccc(Cl)cc4Cl)O3)cc2)CC1 (stereo not shown) [KET, Ketoconazole]
[5]
  DNA damage by inhibitor alone: does not induce DNA damage
[4]
  DNA damage by inhibitor alone: does not induce DNA damage
[2]
  DNA damage by inhibitor alone: does not induce DNA damage
  Level of AFB1-induced SSBs in the presence of KET: reduced to near background levels

## CN(C)N=O [NDMA, N-Nitrosodimethylamine]
[1]
  Carcinogenicity IARC classification: Group 2A
[2]; [6]
  Alkaline CometChip HepaRG (+ HU + AraC) ‘+’ dose range: 2.5 to 20 mM
[2]; [7]
  Genotoxicity Alkaline CometChip HepaRG (+ HU + AraC) +/−: +
[2]; HepaRG, in the absence of HU/AraC, 24 h
  DNA damage score: positive result
[2]; without HU/AraC, 24 h, doses with statistically significant result
  Alkaline CometChip HepaRG ‘+’ dose range: 2.5 to 20 mM
[2]; without HU/AraC, 24 h exposure
  Genotoxicity Alkaline CometChip HepaRG +/−: +

## Nc1ccc(Cl)cc1 [PCA, p-Chloroaniline]
[3]; HepaRG, highest dose (5 mM), 24 h
  Cell death: ~50%
[1]
  Carcinogenicity IARC classification: Group 2B
[2]; HepaRG, using HU/AraC, 24 h
  DNA damage score: negative results

## C[C@H]1[C@H](OC(=O)CCC(=O)O)O[C@@H]2O[C@@]3(C)CC[C@H]4[C@H](C)CC[C@@H]1[C@@]24OO3 [artesunate, Artesunate]
[5]; HepG2, 24 h, absence vs presence of 1 mM HU and 10 μM AraC
  DNA damaging potential: HU/AraC reveals a wider range of genotoxic artesunate doses

## Aflatoxin B1 [AFB1]
[5]
  Average % Tail DNA: 21.9% and 33.4%
  SSBs, dose-response: relatively small increase in SSBs
[4]
  SSBs, response: no response
[2]
  SSBs, dose-response: strong dose-response relationship
